Laboratory results published in patent publication US10300109B2, “Peptidomimetic macrocycles” (AILERON Therapeutics, Inc., priority 2009, dated 2019).
Like-named read-outs stand apart in the source and are kept apart here. Where a SMILES comes first, the peptide text is derived from it. Bridges are numbered along the chain shown (N, C = ends). [ ]: non-standard residue; d: D form. S5 = C=CCCC[C@](C)(N)C(=O)O

Biological target: T1, Beta-Catenin (aa 134-668) (Homo sapiens, UniProt P35222)
T1 construct: Beta-Catenin (aa 134-668, 59 KD)
T1 sequence (P35222 134-668): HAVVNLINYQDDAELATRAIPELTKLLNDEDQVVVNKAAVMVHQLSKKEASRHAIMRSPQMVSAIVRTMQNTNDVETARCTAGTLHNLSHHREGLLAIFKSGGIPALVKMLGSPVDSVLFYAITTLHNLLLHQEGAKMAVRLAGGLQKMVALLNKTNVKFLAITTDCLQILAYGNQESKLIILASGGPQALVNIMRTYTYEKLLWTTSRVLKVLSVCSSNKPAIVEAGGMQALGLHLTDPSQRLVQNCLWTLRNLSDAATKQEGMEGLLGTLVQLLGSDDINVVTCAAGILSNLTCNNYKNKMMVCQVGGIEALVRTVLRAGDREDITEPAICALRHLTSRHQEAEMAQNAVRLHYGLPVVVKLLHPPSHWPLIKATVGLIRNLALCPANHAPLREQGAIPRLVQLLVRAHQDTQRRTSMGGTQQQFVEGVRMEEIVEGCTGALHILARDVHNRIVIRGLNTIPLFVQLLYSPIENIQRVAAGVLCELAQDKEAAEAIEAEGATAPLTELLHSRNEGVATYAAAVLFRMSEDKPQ
Experiment: TCF/Beta-Catenin competitive fluorescence polarization assay
Format: binding
Conditions: competition with FAM-labelled linear probe for 6x His-tagged Beta-Catenin, room temperature, three hours
Method: The following experiments are performed at room temperature unless otherwise noted. First, an assay buffer is prepared composed of 25 mM Tris-Hcl pH 7.5, 200 mM Sodium Chloride, and 5 mM CHAPS. Next, 1M DTT is added to assay buffer to a final concentration of 2 mM. […] Forty μl of this protein stock is added to all but six wells of a 96 well plate (which will serve as the free peptide and Blank). Test competitor peptides are diluted from 1 mM DMSO stocks to 2× working stocks in assay buffer. Further dilutions are made in assay buffer-DMSO as to maintain a constant DMSO concentration in all wells. […] As a benchmark, a linear, non-crosslinked peptide competitor is prepared as above but with a working concentration range of 13-0.7 μM. Fifty μl of the competitor 2× stocks are added to the 40 μl of protein solution previously transferred into the assay 96 well plate. Next, a 10× stock of the fluorescent probe is prepared. The probe is identical to the linear benchmark peptide except for the n-terminal conjugation of a FAM flourophore with Beta-Alanine spacer. A 1 mM DMSO stock of the probe is serially diluted to a final concentration of 25 nM (10×) and 10 μl of this stock is added to all wells except for those that will serve as the blank. The assay plate is stored in the dark and the reaction is allowed to run at room temperature for three hours. The reaction is then read on a Biotek Synergy 2 with the following settings: 100 ms delay, 40 measurements per well, with excitation filters of […], and emission filters of […]. Data is then analyzed in Graphpad Prism.

[1] = read-out: Binding Activity: IC50

| Compound | IC50 [1] [nM] | IC50 (Binding Activity: IC50 (nM)) [nM] |
| --- | --- | --- |
| CC(=O)N[C@@H](CO)C(=O)N[C@@H](C)C(=O)N[C@@H](CCC(=O)O)C(=O)N[C@@H](CCCNC(=N)N)C(=O)N[C@@H](CC(=O)O)C(=O)N[C@@H](CC(C)C)C(=O)N[C@@H](C)C(=O)N[C@@H](CC(=O)O)C(=O)N[C@H](C(=O)N[C@@H](CCCCN)C(=O)N[C@@]1(C)CCCC=CCCC[C@@](C)(C(=O)N[C@@H](CCC(=O)O)C(=O)N[C@@H](CO)C(=O)N[C@@H](CCC(=O)O)C(=O)N[C@@H](CCCCN)C(=O)N[C@@H](CCCNC(=N)N)C(N)=O)NC(=O)[C@H](C(C)C)NC(=O)[C@H](CC(C)C)NC(=O)[C@H](CO)NC1=O)C(C)C [SP12, Ac-SAERDLADVK$SLV$ESEKR-NH2] (Ac-SAERDLADVK[S5]SLV[S5]ESEKR-NH2; staple 11-15) | 84900 |  |
| CC[C@H](C)[C@H](NC(=O)[C@H](CC(C)C)NC(=O)[C@H](CCC(=O)O)NC(=O)[C@H](CC(=O)O)NC(=O)[C@H](CC(N)=O)NC(=O)[C@H](C)NC(=O)CNC(=O)[C@H](CC(C)C)NC(C)=O)C(=O)N[C@@H](CO)C(=O)N[C@@H](Cc1ccccc1)C(=O)N[C@@H](CCCCN)C(=O)N[C@@]1(C)CCCC=CCCC[C@@](C)(C(=O)N[C@@H](CCC(=O)O)C(=O)N[C@@H](CCC(=O)O)C(=O)N[C@@H](CCCCN)C(=O)N[C@@H](CO)C(=O)N[C@@H](CO)C(=O)N[C@@H](CC(N)=O)C(=O)N[C@@H](CC(N)=O)C(=O)N[C@@H](CO)C(=O)N[C@@H](CO)C(=O)N[C@@H](C)C(=O)N[C@@H](CCC(=O)O)C(=O)N[C@@H](CCCNC(=N)N)C(=O)N[C@@H](CC(=O)O)C(=O)N[C@@H](CC(C)C)C(=O)N[C@@H](C)C(=O)N[C@@H](CC(=O)O)C(=O)N[C@H](C(=O)N[C@@H](CCCCN)C(=O)N[C@@H](CO)C(=O)N[C@@H](CO)C(=O)N[C@@H](CC(C)C)C(=O)N[C@H](C(N)=O)C(C)C)C(C)C)NC(=O)[C@H](CCC(=O)O)NC(=O)CNC(=O)[C@H](CCC(=O)O)NC1=O [SP27] (Ac-LGANDELISFK[S5]EGE[S5]EEKSSNNSSAERDLADVKSSLV-NH2; staple 12-16) |  | 158 |
| CC[C@H](C)[C@H](NC(=O)[C@H](CC(C)C)NC(=O)[C@H](CCC(=O)O)NC(=O)[C@H](CC(=O)O)NC(=O)[C@H](CC(N)=O)NC(=O)[C@H](C)NC(=O)CNC(=O)[C@H](CC(C)C)NC(C)=O)C(=O)N[C@@H](CO)C(=O)N[C@@H](Cc1ccccc1)C(=O)N[C@@H](CCCCN)C(=O)N[C@@H](CC(=O)O)C(=O)N[C@@H](CCC(=O)O)C(=O)NCC(=O)N[C@@]1(C)CCCC=CCCC[C@@](C)(C(=O)N[C@@H](CO)C(=O)N[C@@H](CO)C(=O)N[C@@H](CC(N)=O)C(=O)N[C@@H](CC(N)=O)C(=O)N[C@@H](CO)C(=O)N[C@@H](CO)C(=O)N[C@@H](C)C(=O)N[C@@H](CCC(=O)O)C(=O)N[C@@H](CCCNC(=N)N)C(=O)N[C@@H](CC(=O)O)C(=O)N[C@@H](CC(C)C)C(=O)N[C@@H](C)C(=O)N[C@@H](CC(=O)O)C(=O)N[C@H](C(=O)N[C@@H](CCCCN)C(=O)N[C@@H](CO)C(=O)N[C@@H](CO)C(=O)N[C@@H](CC(C)C)C(=O)N[C@H](C(N)=O)C(C)C)C(C)C)NC(=O)[C@H](CCC(=O)O)NC(=O)[C@H](CCC(=O)O)NC(=O)[C@H](CCC(N)=O)NC1=O [SP28, Ac-LGANDELISFKDEG$QEE$SSNNSSAERDLADVKSSLV-NH2] (Ac-LGANDELISFKDEG[S5]QEE[S5]SSNNSSAERDLADVKSSLV-NH2; staple 15-19) | 158 |  |
